“And” between values parts separate entries of the source, which are not always exact repeats. Equal entries are not always repeated.

Take `CNC(=C[N+](=O)[O-])NCCSCc1ccc(CN(C)C)o1`: the pKa (as a rule, the negative logarithm of the acid dissociation constant) was 8.47.
In the case of `C/C(=N\N=C(/S)N/N=C(\S)Nc1cccc(C(F)(F)F)c1)c1ccccn1`, the pKa came to 6.79.
For `CCCCc1nc(Cl)c(COC)n1Cc1ccc(NC(=O)c2ccccc2S(=O)(=O)O)cc1` the value was -6.6.
`CS(=O)(=O)Nc1ccc(Nc2c3ccccc3nc3cccc([N+](=O)[O-])c23)cc1` displayed a pKa of 4.79.
With `CN(C)CC(C)(C)CCc1ccc(C(C)(C)C)cc1` the figure was 9.4; with `Cl.Cl.NCCS`, 9.11.
For `CCCCCOC(=O)c1ccc(OS(N)(=O)=O)cc1` the value was 8.47; for `CCC(C)NCc1cccc(S(=O)(=O)c2csc(S(N)(=O)=O)c2)c1.Cl` (configuration not stated), 7.45; for `COC(=O)Nc1ccc(Nc2c3ccccc3nc3ccccc23)cc1`, 7.64.
`Brc1cccc(Br)c1N=C1NCCN1` showed a pKa of 7.8.
Consider `C[C@]12CC[C@H]3[C@@H](CCC4=CC(=O)CC[C@@]43C)[C@@H]1CC[C@@H]2O`, for which the pKa amounted to 4.48.
With `O=S1NC(CCc2ccccc2)=NO1` (configuration not stated) the figure was 5.23; with `CCNc1ccc(Nc2c3ccccc3nc3ccccc23)cc1`, 8.3.
For `CCC12CCC(=O)C=C1c1c(cc(OCC(=O)OCC(=O)O)c(Cl)c1Cl)C2` (configuration not stated) the value was 3.8; for `Cc1ccc(NS(=O)(=O)Cc2ccccc2)c(=O)n1CC(=O)NCc1cnc(N)nc1`, 3.9.
As to `CS(=O)(=O)O.NC(=O)Cc1ccc(Nc2c3ccccc3nc3ccccc23)cc1`, the pKa was 7.43.
For `Cc1cc(Br)cc(C)c1N=C1NCCN1` the value was 10.2.
With `CCN(CC)CCCC(C)Nc1c2ccc(Cl)cc2nc2ccc(OC)cc12` (configuration not stated) the figure was 10.2; with `C/C(=N\N=C(/S)N/N=C(\S)Nc1cccc(I)c1)c1ccccn1`, 7.03; with `CCCCNC(=O)c1cccc2c(Nc3ccc(NS(C)(=O)=O)cc3OC)c3ccccc3nc12`, 6.36.
With `CN(C)C(=O)C1=C(C(=O)N(C)C)C2c3ccccc3C1c1ccccc12` the figure was -2.68.
Turning to `CCCCCCOC(=O)NCCCC(C)Nc1cc(OC)cc2cccnc12` (configuration not stated), the pKa turned out to be 16.2.
For `Cc1cccc(Nc2c3ccccc3nc3ccccc23)c1` the value was 7.52; for `CS(=O)(=O)Nc1ccc(Nc2c3ccccc3nc3ccccc23)cc1.Cl`, 7.19; for `CCOC(=O)C1(c2ccccc2)CCN(C)CC1`, 8.7.
On to `Oc1cc(C2CCNCC2)sn1`, for which the pKa was determined as 10.7.
`Cn1ccnc1N`: the pKa amounted to 8.54.
With `O=C(C1CCN(c2ccncc2)CC1)N1CCN(S(=O)(=O)c2ccc(Br)cc2)CC1` the figure was 9.2; with `COc1cc(Nc2c3ccccc3nc3ccccc23)ccc1NS(C)(=O)=O`, 7.03; with `N[C@H]1C[C@@H]1c1ccccc1`, 8.5.
For `COc1cc(NS(C)(=O)=O)ccc1Nc1c2ccccc2nc2cc(C)ccc12` the value was 7.7.
For `CS(=O)(=O)Nc1ccc(Nc2c3ccccc3nc3ncccc23)cc1` the value was 5.93.
The molecule `O=C(Nc1noc2ccccc12)N1CCN(Cc2cccc(Oc3ccc(Cl)cc3)c2)CC1` displayed a pKa of -4.7.
In turn, `CCN(CCN(CC(=O)O)CC(=O)O)CCN(CC(=O)O)CC(=O)O` had a pKa of 2.8.
The molecule `O=c1ccc(-c2ccc(S(=O)(=O)Nc3cccc4c3CCCC4)s2)n[nH]1` returned a pKa of -2.5.
With `CS(=O)(=O)Nc1ccc(Nc2c3ccccc3nc3cc(I)ccc23)cc1` the figure was 6.52; with `CN(C)CCCNc1ccnc2cccc([N+](=O)[O-])c12`, 6.39; with `N[C@@H](CS)C(=O)O`, 8.3.
The molecule `CC(C)Oc1ncc(-c2nc(-c3cccc4c3OCCNC4CCCC(=O)O)no2)cc1Cl` (configuration not stated) came in with a pKa of 7.98.
Take `Cc1ccc(Nc2c3ccccc3nc3ccccc23)cc1`: the pKa was determined as 7.72.
With `CCOc1ccccc1Nc1c2ccccc2nc2ccccc12` the figure was 7.85; with `COc1ccc(Nc2c3ccccc3nc3ccccc23)cc1`, 7.94.
As for `Clc1cccc(Cl)c1NC1=NCCN1`, the pKa worked out at 8.05.
In turn, `CN(C)CCCNc1c2ccccc2nc2cccc([N+](=O)[O-])c12` registered a pKa of 6.21.
For `COC(=O)C(c1ccccc1)C1CCCCN1` (configuration not stated) the value was 9.24.
With `c1ccc(-c2ncc[nH]2)cc1`, the pKa is 6.48.
For `CCC1(c2ccccc2)C(=O)NC(=O)NC1=O` the value was 7.5.
For `Cc1nc2c3c(ccn2c1CC#N)CCC(c1ccccc1)O3` (configuration not stated) the value was 6; for `N[C@@H]1C[C@]1(F)c1ccccc1`, 6.98.
With `O=C1CC2(CCCC2)CC(=O)N1CCCCN1CCN(c2ncccn2)CC1` the figure was 7.8; with `Cc1cnc(NCC(F)(F)c2ccccc2)c(=O)n1CC(=O)NCc1cnc(N)cn1`, 2.7.
The molecule `CN(C)CCCN1c2ccccc2CCc2ccc(Cl)cc21` registered a pKa of 9.38.
With `CN(C)CCCN1c2ccccc2Sc2ccccc21` the figure was 9.4; with `Cc1cc(OCCN2CCOCC2)nn1-c1ccc2ccccc2c1`, 6.5; with `COc1ccc2c(Nc3ccc(NS(C)(=O)=O)cc3)c3ccccc3nc2c1`, 7.57.
On to `CO/N=C(\C#N)C1CN2CCC1CC2` (configuration not stated), for which the pKa was 8.96.
`CS(=O)(=O)Nc1ccc(Nc2c3ccccc3nc3ccc(Cl)cc23)cc1` displayed a pKa of 6.42.
`Clc1cccc(Br)c1N=C1NCCN1` had a pKa of 7.93.
As for `Cc1ccc(S(=O)(=O)c2nc(N3CCc4ccccc4C3)sc2Cl)cc1`, the pKa is -3.78.
For `NC(=O)C(F)(F)F` the value was 17.2; for `NS(=O)(=O)Cc1ccc(Nc2c3ccccc3nc3ccccc23)cc1`, 7.05; for `CCCCCCCOC(=O)c1ccc(OS(N)(=O)=O)cc1`, 8.27.
On to `CC12CC3(C)CC(C)(C1)CC(N)(C2)C3`, for which the pKa is 10.6.
For `COc1cc(NS(C)(=O)=O)ccc1Nc1c2ccccc2nc2ccc(F)cc12` the value was 6.71; for `NS(=O)(=O)c1cc(S(=O)(=O)c2ccc(O)cc2)cs1`, 7.46.
In turn, `O=[N+]([O-])c1ncc[nH]1` had a pKa of 0.81.
As for `Cc1c(-c2noc(-c3ccc(OC(C)C)c(C#N)c3)n2)ccc2c1CCN(C(CO)CO)C2`, the pKa turned out to be 7.3.
On to `C[C@H](CCC(=O)O)[C@H]1CC[C@H]2[C@@H]3[C@@H](O)C[C@@H]4C[C@H](O)CC[C@]4(C)[C@H]3CC[C@]12C`, for which the pKa was found to be 5.08.
As to `COc1cc(NS(C)(=O)=O)ccc1Nc1c2ccccc2nc2c(C(=O)NCC(O)CO)cccc12` (configuration not stated), the pKa was found to be 6.34.
With `CS(=O)(=O)[O-].NC(=O)CCc1ccc(Nc2c3ccccc3[nH+]c3ccccc23)cc1` the figure was 7.63; with `Cl.Fc1ccc2c(c1)N(CCCN1CCCCC1)c1cc(F)ccc1CC2`, 7.6; with `Cc1nc(N)ncc1CNC(=O)Cn1c(C)cnc(NCC(F)(F)c2ccccc2)c1=O`, 4.2.
With `CS(=O)(=O)Nc1ccc(Nc2c3ccccc3nc3cc(S(C)(=O)=O)ccc23)cc1` the figure was 5.65; with `Cc1nc2c(OCc3ccccc3)cccn2c1CC#N`, 5.5.
Take `COc1cc(NS(C)(=O)=O)ccc1Nc1c2ccccc2nc2c(OCCO)cccc12`: the pKa came to 7.36.
For `Nc1ccc(S(=O)(=O)Nc2ccc(Nc3c4ccccc4nc4ccccc34)cc2)cc1` the value was 7.15.
`CN1CCCC(n2nc(Cc3ccc(Cl)cc3)c3ccccc3c2=O)CC1` (configuration not stated) showed a pKa of 9.54.
For `CNC(=O)COc1cccc2c(Nc3ccc(NS(C)(=O)=O)cc3OC)c3ccccc3nc12` the value was 7.35.
`CC(C)(C)NCC(O)COc1cccc2c1C[C@H](O)[C@H](O)C2` (some centres not stated) had a pKa of 9.67.
With `Cc1cnc(NCCc2ccccc2)c(=O)n1CC(=O)NCc1ccc(C(=N)N)cc1` the figure was 10.2; with `Cc1cnc(NCCc2ccccc2)c(=O)n1CC(=O)NC[C@H]1CN=C(N)NC1`, 14.
Take `CC12CC3CC(C)(C1)CC(N)(C3)C2`: the pKa was 10.4.
With `FC1CCCNC1` (configuration not stated) the figure was 9.3; with `COc1cccc(S(=O)(=O)Nc2cccn(CC(=O)NCc3ccc(C(=N)N)cc3Cl)c2=O)c1`, 9.4; with `CC(C(=O)O)c1ccc(-c2ccccc2)c(F)c1` (configuration not stated), 4.6 and 4.2.
With `Cc1nc2c(CCc3ccccc3)cccn2c1CC#N` the figure was 6; with `FC1(F)CCCNC1`, 7.4.
As for `N[C@H]1C[C@]1(F)c1ccccc1`, the pKa was determined as 7.35.
In turn, `Oc1nsc2c1CNCC2` registered a pKa of 9.2.
With `COc1ccc(C(CCCN)(c2ccccc2)c2ccccc2)cc1` the figure was 9.86; with `CC(C)Oc1ccc(-c2nc(-c3ccc4c(c3)CCN(C(CO)CO)CC4)no2)cc1C#N`, 7.8; with `COc1cc(NS(C)(=O)=O)ccc1Nc1c2ccccc2nc2c(C#N)cccc12`, 4.87.
On to `Oc1cc(C2CCNCC2)on1`, for which the pKa was found to be 10.3.
Molecule `Nc1cccc(Nc2c3ccccc3nc3ccccc23)c1` registered a pKa of 7.58.
For `Cc1c(-c2noc(-c3ccc(OC(C)C)c(C#N)c3)n2)cnc2c1CCN(C(CO)CO)C2`, the pKa amounted to 6.2.
For `NCCC(F)(F)F` the value was 8.7.
Take `COc1cc(NS(C)(=O)=O)ccc1Nc1c2ccccc2nc2c(Br)cccc12`: the pKa is 6.09.
Turning to `CN/C(=N/CCSCc1nc[nH]c1C)NC#N`, the pKa is 6.8 (3×) and 6.97 (2×).
With `Cc1nc(N)ncc1CNC(=O)Cn1c(C)ccc(NS(=O)(=O)Cc2cccc3c2OCCO3)c1=O`, the pKa worked out at 4.2.
For `NC(=O)CCCc1ccc(Nc2c3ccccc3nc3ccccc23)cc1` the value was 7.67.
`CS(=O)(=O)Nc1ccc(Nc2c3ccccc3nc3cc(N=[N+]=[N-])ccc23)cc1` had a pKa of 7.
Molecule `CC(=O)N1CCN(c2ccc(OCC3COC(Cn4ccnc4)(c4ccc(Cl)cc4Cl)O3)cc2)CC1` (configuration not stated) registered a pKa of 5.41.
With `CC1=CN(c2ccc(S(N)(=O)=O)cc2)C(N2C=CN(C)C=C2)N1` (configuration not stated) the figure was 7.11; with `COC(=O)c1ccc(Nc2c3ccccc3nc3ccccc23)cc1`, 6.21; with `CS(=O)(=O)Nc1ccc(Nc2c3ccccc3nc3cccc(Cl)c23)cc1`, 5.86.
For `O=C1Nc2ccc(Cl)cc2C1(c1c[nH]c2ccccc12)c1c[nH]c2ccccc12` the value was -6.84; for `Clc1cc(Cl)c(N=C2NCCN2)c(Cl)c1`, 7.75.

Source of the values: the pKa sets of Baltruschat and Czodrowski (2020).
